Data on 30 compounds can be found in ChEMBL document CHEMBL1135039, “A novel synthesis of 2-arylpyrrolo[1,2-a]pyrimid-7-ones and their structure-activity relationships as potent GnRH receptor antagonists” (Bioorg Med Chem Lett, 2002).

One may read the Ki as the equilibrium dissociation constant of an inhibitor or competing ligand from its target. Lower therefore signals a stronger hold on the target.

The assay has as its target T1, Gonadotropin-releasing hormone receptor (Homo sapiens, UniProt P30968).
T1 sequence (P30968 whole entry): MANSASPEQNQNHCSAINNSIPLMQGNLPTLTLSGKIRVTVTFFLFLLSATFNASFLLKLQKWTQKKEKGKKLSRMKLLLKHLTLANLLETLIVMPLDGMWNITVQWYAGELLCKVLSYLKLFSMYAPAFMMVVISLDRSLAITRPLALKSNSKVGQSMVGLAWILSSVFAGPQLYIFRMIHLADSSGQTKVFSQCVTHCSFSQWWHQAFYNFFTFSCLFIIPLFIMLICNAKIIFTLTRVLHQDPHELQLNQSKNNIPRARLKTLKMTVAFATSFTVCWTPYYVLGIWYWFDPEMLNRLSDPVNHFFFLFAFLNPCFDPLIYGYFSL
Kind of assay: Binding affinity to human gonadotropin-releasing hormone (hGnRH) receptor expressed in HEK293 cells using des-Gly10[125I-Tyr,5DLeu,6NMeLeu,7Pro9-NEt]GnRH radioligand. Type of assay: cell-based.
The compound `CCOC(=O)c1cn(Cc2ccccc2F)c2cc(-c3ccc(N)cc3)c(CN(C)Cc3ccccc3)n2c1=O` displayed a Ki of 0.19 µM.
With `CCC(CC)OC(=O)c1cn(Cc2ccccc2F)c2cc(-c3ccc(NC(C)=O)cc3)c(CN(C)CCc3ccccn3)n2c1=O` the figure was 0.0028 µM; with `CCOC(=O)c1cn(Cc2ccccc2F)c2cc(-c3ccc(OC)cc3)c(CN(C)Cc3ccccc3)n2c1=O`, 0.4 µM.
With `CCCC(=O)Nc1ccc(-c2cc3n(Cc4ccccc4F)cc(C(=O)OC(CC)CC)c(=O)n3c2CN(C)Cc2ccccc2)cc1` the figure was 0.0038 µM; with `CCCCNC(=O)c1cn(Cc2ccccc2F)c2cc(-c3ccc(NC(=O)CCC)cc3)c(CN(C)CCc3ccccn3)n2c1=O`, 0.01 µM; with `CCCC(=O)Nc1ccc(-c2cc3n(Cc4ccccc4F)cc(C(=O)OCC)c(=O)n3c2CN(C)CCc2ccccn2)cc1`, 0.0012 µM.
In the case of `CCCC(=O)Nc1ccc(-c2cc3n(Cc4ccccc4F)cc(C(=O)OC(CC)CC)c(=O)n3c2CN(C)CCN(CC)CC)cc1` it was 0.0058 µM; in that of `CCCC(=O)Nc1ccc(-c2cc3n(Cc4ccccc4F)cc(C(=O)OC(CC)CC)c(=O)n3c2CN(C)C)cc1`, 0.13 µM; in that of `CCOC(=O)c1cn(Cc2ccccc2F)c2cc(-c3ccc(NC(C)=O)cc3)c(CN(C)Cc3ccccc3)n2c1=O`, 0.042 µM.
Compound `CCCC(=O)Nc1ccc(-c2cc3n(Cc4ccccc4F)cc(C(=O)NCCCc4ccccc4)c(=O)n3c2CN(C)CCc2ccccn2)cc1` came in with a Ki of 0.0011 µM.
With `CCCC(=O)Nc1ccc(-c2cc3n(Cc4ccccc4F)cc(C(=O)NCCCc4ccccc4)c(=O)n3c2CN(C)Cc2ccccc2)cc1` the figure was 0.017 µM.
On to `CCCCNC(=O)c1cn(Cc2ccccc2F)c2cc(-c3ccc(NC(=O)CCC)cc3)c(CN(C)CCN(CC)CC)n2c1=O`, for which the affinity corresponds to a Ki of 0.44 µM.
In the case of `CN(CCc1ccccn1)Cc1c(-c2ccc([N+](=O)[O-])cc2)cc2n(Cc3ccccc3F)cc(-c3nc(C(C)(C)C)co3)c(=O)n12` it was 0.064 µM; in that of `CCC(CC)OC(=O)c1cn(Cc2ccccc2F)c2cc(-c3ccc(N)cc3)c(CN(C)Cc3ccccc3)n2c1=O`, 0.1 µM; in that of `CCCCNC(=O)c1cn(Cc2ccccc2F)c2cc(-c3ccc(NC(=O)CCC)cc3)c(CN(C)Cc3ccccc3)n2c1=O`, 0.154 µM.
For the compound `CCOC(=O)c1cn(Cc2ccccc2F)c2cc(-c3ccc(NC(=O)C(C)C)cc3)c(CN(C)Cc3ccccc3)n2c1=O`, the Ki was determined as 0.044 µM.
`CCC(CC)OC(=O)c1cn(Cc2ccccc2F)c2cc(-c3ccc(OC)cc3)c(CN(C)Cc3ccccc3)n2c1=O`: affinity was put at a Ki of 0.062 µM.
In the case of `CCCC(=O)Nc1ccc(-c2cc3n(Cc4ccccc4F)cc(C(=O)NC4CCCCC4)c(=O)n3c2CN(C)CCc2ccccn2)cc1` it was 0.032 µM.
In the case of `CCCC(=O)Nc1ccc(-c2cc3n(Cc4ccccc4F)cc(C(=O)NC4CCCC4)c(=O)n3c2CN(C)CCc2ccccn2)cc1` it was 0.0092 µM; in that of `CCCC(=O)Nc1ccc(-c2cc3n(Cc4ccccc4F)cc(C(=O)OC(CC)CC)c(=O)n3c2CN(C)CCc2ccccc2)cc1`, 0.0021 µM; in that of `CCCC(=O)Nc1ccc(-c2cc3n(Cc4ccccc4F)cc(C(=O)NCCOC)c(=O)n3c2CN(C)CCc2ccccn2)cc1`, 0.63 µM.
In the case of `CN(CCc1ccccn1)Cc1c(-c2ccc([N+](=O)[O-])cc2)cc2n(Cc3ccccc3F)cc(C3=NC(C)(C)CO3)c(=O)n12` it was 0.27 µM; in that of `CCCC(=O)Nc1ccc(-c2cc3n(Cc4ccccc4F)cc(C(=O)NC(CC)CC)c(=O)n3c2CN(C)CCc2ccccn2)cc1`, 0.021 µM.
As for `CCC(CC)OC(=O)c1cn(Cc2ccccc2F)c2cc(-c3ccc(NC(C)=O)cc3)c(CN(C)Cc3ccccc3)n2c1=O`, the affinity corresponds to a Ki of 0.004 µM.
In the case of `CCCC(=O)Nc1ccc(-c2cc3n(Cc4ccccc4F)cc(C(=O)OC(CC)CC)c(=O)n3c2CN(C)CCc2ccccn2)cc1` it was 0.0027 µM; in that of `CCC(CC)OC(=O)c1cn(Cc2ccccc2F)c2cc(-c3ccc(OC)cc3)c(CN(C)CCc3ccccn3)n2c1=O`, 0.014 µM; in that of `CCOC(=O)c1cn(Cc2ccccc2F)c2cc(-c3ccc(NC(=O)C(C)C)cc3)c(CN(C)CCc3ccccn3)n2c1=O`, 0.014 µM.
With `CCOC(=O)c1cn(Cc2ccccc2F)c2cc(-c3ccc(OC)cc3)c(CN(C)CCc3ccccn3)n2c1=O` the figure was 0.055 µM; with `CCCCCCNC(=O)c1cn(Cc2ccccc2F)c2cc(-c3ccc(NC(=O)CCC)cc3)c(CN(C)CCc3ccccn3)n2c1=O`, 0.0033 µM.
With `CCOC(=O)c1cn(Cc2ccccc2F)c2cc(-c3ccc([N+](=O)[O-])cc3)c(CN(C)Cc3ccccc3)n2c1=O` the figure was 0.45 µM.
